Test results taken from patent US20230013602A1, “NOVEL IMIDAZOPYRAZINE DERIVATIVES” (Hoffmann-La Roche Inc., priority 2018, published 2023).
Structures can show the parent of a compound that is named as a salt.

Each compound was assayed on Acinetobacter baumannii ATCC17961 (assay: Antimicrobial susceptibility testing, 90% growth inhibitory concentration (IC90) determination). Details: 90% growth inhibitory concentration, Acinetobacter baumannii ATCC17961, Iso-Sensitest broth, OD 600 nm over 16 h; read-out: ATCC17961 IC90.
Format: cell-based
Experimental: The in vitro antimicrobial activity of the compounds was determined according to the following procedure:
The assay used a 10-points Iso-Sensitest broth medium to measure quantitatively the in vitro activity of the compounds against Acinetobacter baumannii ATCC 17978 and Acinetobacter baumannii ATCC17961.
Stock compounds in DMSO were serially twofold diluted (e.g. range from 50 to 0.097 μM final concentration) in 384 wells microtiter plates and inoculated with 49 μl the bacterial suspension in Iso-Sensitest medium to have a final cell concentration of ˜5×10^(5) CFU/ml in a final volume/well of 50 ul/well. Microtiter plates were incubated at 35+2° C.
Bacterial cell growth was determined with the measurement of optical density at X=600 nm each 20 minutes over a time course of 16 h. Growth inhibition was calculated during the logarithmic growth of the bacterial cells with determination of the concentration inhibiting 50% (IC50) and 90% (IC90) of the growth.
Table 1 provides the 90% growth inhibitory concentrations (IC90) in micromoles per liter of the compounds of present invention obtained against the strain Acinetobacter baumannii ATCC17978 and Acinetobacter baumannii ATCC17961.

IC90 | Compound
201 nM | CCc1cc(Nc2nccn3c(-c4ccc(OC)c(F)c4F)cnc23)ccc1C(=O)N[C@@H]1C[C@@H]1N (racemic) [Example 74, rac-N-((1R,2S)-2-aminocyclopropyl)-4-((3-(2,3-difluoro-4-methoxyphenyl)imidazo[1,2-a]pyrazin-8-yl)amino)-2-ethylbenzamide]
259 nM | CCc1cc(Nc2nccn3c(-c4ccc(OC)c(F)c4F)cnc23)ccc1C(=O)NC12CC(N)(C1)C2 [Example 61, N-(3-aminobicyclo[1.1.1]pentan-1-yl)-4-((3-(2,3-difluoro-4-methoxyphenyl)imidazo[1,2-a]pyrazin-8-yl)amino)-2-ethylbenzamide dihydrochloride]
754 nM | CCc1cc(Nc2nccn3c(-c4ccc(OC)c(F)c4F)cnc23)ccc1C(=O)NC1CCC(NC(=O)[C@@H](N)CCCNC(=N)N)C1 (mixture of isomers) [Example 46, rac-N-(3-((R)-2-amino-5-guanidinopentanamido)cyclopentyl)-4-((3-(2,3-difluoro-4-methoxyphenyl)imidazo[1,2-a]pyrazin-8-yl)amino)-2-ethylbenzamide bis(2,2,2-trifluoroacetate)]
101 nM | COc1ccc(-c2cnc3c(Nc4ccc(C(=O)N[C@H]5C[C@H](NC(=O)[C@@H]6C[C@@H](O)CN6)C5)c(C)c4)nccn23)c(F)c1F [Example 67, (2S,4R)-N-((1r,3 S)-3-(4-((3-(2,3-difluoro-4-methoxyphenyl)imidazo[1,2-a]pyrazin-8-yl)amino)-2-methylbenzamido)cyclobutyl)-4-hydroxypyrrolidine-2-carboxamide]
274 nM | CCc1cc(Nc2nccn3c(-c4ccc(OC)c(F)c4F)cnc23)ccc1C(=O)NC1CCCCC1NC(=O)[C@@H]1C[C@@H](O)CN1 (stereo partly drawn) [Example 49, (2S,4R)-N-(2-(4-((3-(2,3-difluoro-4-methoxyphenyl)imidazo[1,2-a]pyrazin-8-yl)amino)-2-ethylbenzamido)cyclohexyl)-4-hydroxypyrrolidine-2-carboxamide dihydrochloride]
47 nM | COc1ccc(-c2cnc3c(Nc4ccc(C(=O)NC5CN(C(=O)[C@@H]6C[C@@H](O)CN6)C5)c(C)c4)nccn23)c(F)c1F [Example 65, 4-((3-(2,3-difluoro-4-methoxyphenyl)imidazo[1,2-a]pyrazin-8-yl)amino)-N-(1-((2S,4R)-4-hydroxypyrrolidine-2-carbonyl)azetidin-3-yl)-2-methylbenzamide]
279 nM | COc1ccc(-c2cnc3c(Nc4ccc(C(=O)NC5CNC5)c(C)c4)nccn23)c(F)c1F [Example 56, N-(azetidin-3-yl)-4-((3-(2,3-difluoro-4-methoxyphenyl)imidazo[1,2-a]pyrazin-8-yl)amino)-2-methylbenzamide]
315 nM | CCc1cc(Nc2nccn3c(-c4ccc(OC)c(F)c4F)cnc23)ccc1C(=O)N[C@@H]1C[C@H]1N (racemic) [Example 58, rac-N-((1R,2R)-2-aminocyclopropyl)-4-((3-(2,3-difluoro-4-methoxyphenyl)imidazo[1,2-a]pyrazin-8-yl)amino)-2-ethylbenzamide]
55 nM | COc1ccc(-c2cnc3c(Nc4ccc(C(=O)N[C@@H]5CCN(C(=O)[C@@H]6C[C@@H](O)CN6)C5)c(C)c4)nccn23)c(F)c1F [Example 63]
40 nM | COc1ccc(-c2cnc3c(Nc4ccc(C(=O)N[C@H]5C[C@@H](NC(=O)[C@@H]6C[C@@H](O)CN6)C5)c(C)c4)nccn23)c(F)c1F [Example 66, (2S,4R)-N-((1s,3R)-3-(4-((3-(2,3-difluoro-4-methoxyphenyl)imidazo[1,2-a]pyrazin-8-yl)amino)-2-methylbenzamido)cyclobutyl)-4-hydroxypyrrolidine-2-carboxamide]
189 nM | COc1ccc(-c2cnc3c(Nc4ccc(C(=O)N[C@H]5CC[C@@H](NC(=O)C(C)C)CC5)c(C)c4)nccn23)c(F)c1F [Example 60, rac-4-((3-(2,3-dif!uoro-4-methoxyphenyl)imidazo[1,2-a]pyrazin-8-yl)amino)-N-((1s,4s)-4-isobutyramidocyclohexyl)-2-methylbenzamide]

The remaining lines, values behind:

Compound | IC90
CCc1cc(Nc2nccn3c(-c4ccc(OC)c(F)c4F)cnc23)ccc1C(=O)NC1CCN(C(=O)[C@@H](N)CCCNC(=N)N)CC1 [Example 44, N-(1-(L-arginyl)piperidin-4-yl)-4-((3-(2,3-difluoro-4-methoxyphenyl)imidazo[1,2-a]pyrazin-8-yl)amino)-2-ethylbenzamide bis(2,2,2-trifluoroacetate)] | 847 nM
CCc1cc(Nc2nccn3c(-c4ccc(OC)c(F)c4F)cnc23)ccc1C(=O)N[C@@H]1C[C@H]1NC(=O)[C@@H]1C[C@@H](O)CN1 (mixture of isomers) [Example 68, (2S,4R)-N-[(1RS, 2RS)-2-[[4-[[3-(2,3-difluoro-4-methoxy-phenyl)imidazo[1,2-a]pyrazin-8-yl]amino]-2-ethyl-benzoyl]amino]cyclopropyl]-4-hydroxy-pyrrolidine-2-carboxamide] | 140 nM
COc1ccc(-c2cnc3c(Nc4ccc(C(=O)N[C@H]5CC[C@H](N)CC5)c(C)c4)nccn23)c(F)c1F [Example 52, rac-N-((1r,4r)-4-aminocyclohexyl)-4-((3-(2,3-difluoro-4-methoxyphenyl)imidazo[1,2-a]pyrazin-8-yl)amino)-2-methylbenzamide] | 243 nM
COc1ccc(-c2cnc3c(Nc4ccc(C(=O)N[C@H]5CC[C@H](NC(=O)[C@@H]6C[C@@H](O)CN6)CC5)c(C)c4)nccn23)c(F)c1F [Example 62, (2S,4R)-N-((1r,4S)-4-(4-((3-(2,3-difluoro-4-methoxyphenyl)imidazo[1,2-a]pyrazin-8-yl)amino)-2-methylbenzamido)cyclohexyI)-4-hydroxypyrrolidine-2-carboxamide] | 268 nM
CCc1cc(Nc2nccn3c(-c4ccc(OC)c(F)c4F)cnc23)ccc1C(=O)N[C@H]1CC[C@H](N)C1 (racemic) [Example 43, rac-N-((1R,3 R)-3-aminocyclopentyl)-4-((3-(2,3-difluoro-4-methoxyphenyl)imidazo[1,2-a]pyrazin-8-yl)amino)-2-ethylbenzamide] | 211 nM
COc1ccc(-c2cnc3c(Nc4ccc(C(=O)N[C@H]5CC[C@H](N)C5)c(C)c4)nccn23)c(F)c1F (racemic) [Example 54, rac-N-((1R,3R)-3-aminocyclopentyl)-4-((3-(2,3-difluoro-4-methoxyphenyl)imidazo[1,2-a]pyrazin-8-yl)amino)-2-methylbenzamide] | 238 nM
CCc1cc(Nc2nccn3c(-c4ccc(OC)c(F)c4F)cnc23)ccc1C(=O)NC12CC(NC(=O)[C@@H]3C[C@@H](O)CN3)(C1)C2 [Example 70, (2S,4R)-N-(3-(4-((3-(2,3-difluoro-4-methoxyphenyl)imidazo[1,2-a]pyrazin-8-yl)amino)-2-ethylbenzamido)bicyclo[1.1.1]pentan-1-yl)-4-hydroxypyrrolidine-2-carboxamide dihydrochloride] | 197 nM
COc1ccc(-c2cnc3c(Nc4ccc(C(=O)NC5CCCN(C(=O)[C@@H]6C[C@@H](O)CN6)C5)c(C)c4)nccn23)c(F)c1F (mixture of isomers) [Example 59, rac-4-((3-(2,3-difluoro-4-methoxyphenyl)imidazo[1,2-a]pyrazin-8-yl)amino)-N-(1-((2R,4S)-4-hydroxypyrrolidine-2-carbonyl)piperidin-3-yl)-2-methylbenzamide] | 294 nM
CCc1cc(Nc2nccn3c(-c4ccc(OC)c(F)c4F)cnc23)ccc1C(=O)NC1CCC1NC(=O)[C@@H]1C[C@@H](O)CN1 (mixture of isomers) [Example 69, (2S,4R)-N-(2-(4-((3-(2,3-difluoro-4-methoxyphenyl)imidazo[1,2-a]pyrazin-8-yl)amino)-2-ethylbenzamido)cyclobutyl)-4-hydroxypyrrolidine-2-carboxamide] | 246 nM
COc1ccc(-c2cnc3c(Nc4ccc(C(=O)N[C@H]5CCNC5)c(C)c4)nccn23)c(F)c1F [Example 55, (S)-4-((3-(2,3-difluoro-4-methoxyphenyl)imidazo[1,2-a]pyrazin-8-yl)amino)-2-methyl-N (pyrrolidin-3-yl)benzamide] | 236 nM
CCc1cc(Nc2nccn3c(-c4ccc(OC)c(F)c4F)cnc23)ccc1C(=O)N[C@H]1CC[C@H](N)CC1 [Example 42, trans-N-((1r,4r)-4-aminocyclohexyl)-4-((3-(2,3-difluoro-4-methoxyphenyl)imidazo[1,2-a]pyrazin-8-yl)amino)-2-ethylbenzamide] | 260 nM
CCc1cc(Nc2nccn3c(-c4ccc(OC)c(F)c4F)cnc23)ccc1C(=O)N[C@@H]1CCN(C(=O)[C@@H](N)CCCNC(=N)N)C1 [Example 47, N-((R)-1-(L-arginyl)pyrrolidin-3-yl)-4-((3-(2,3-difluoro-4-methoxyphenyl)imidazo[1,2-a]pyrazin-8-yl)amino)-2-ethylbenzamide bis(2,2,2-trifluoroacetate)] | 352 nM
COc1ccc(-c2cnc3c(Nc4ccc(C(=O)NC5CCNCC5)c(C)c4)nccn23)c(F)c1F [Example 50, 4-((3-(2,3-difluoro-4-methoxyphenyl)imidazo[1,2-a]pyrazin-8-yl)amino)-2-methyl-N-(piperidin-4-yl)benzamide] | 319 nM
CCc1cc(Nc2nccn3c(-c4ccc(OC)c(F)c4F)cnc23)ccc1C(=O)N[C@H]1CCC[C@H]1NC(=O)[C@@H]1C[C@@H](O)CN1 [Example 53, (2S,4R)-N-((1R, 2S)-2-(4-((3-(2,3-difluoro-4-methoxyphenyl)imidazo[1,2-a]pyrazin-8-yl)amino)-2-ethylbenzamido)cyclopentyl)-4-hydroxypyrrolidine-2-carboxamide] | 987 nM
